Laboratory results from patent US20240261274A1, “TREATMENT OF MYC-DRIVEN CANCERS WITH GSPT1 DEGRADERS” (MONTE ROSA THERAPEUTICS, INC., priority 2021, published 2024).

How the values were obtained:
[1] = system: human cell line NCI-H1155 xenograft; assay: N-Myc-driven mouse xenograft model, NCI-H1155, compound 210 oral; assay type: in vivo
[2] = target: GSPT1 (Homo sapiens, UniProt P15170+Q96SW2); assay: GSPT1 degradation in tumors of mice treated with compound 210; assay type: in vivo; set-up: from tissue; host or cells: NCI-H1155 subcutaneous xenograft tumours from BALB/c nude mice; settings: 1 mg/kg, 3 mg/kg, 6 mg/kg; compared to vehicle control
[3] = system: patient-derived xenografts; assay: In vivo mouse patient-derived xenograft experiment, survival, Compound 345
Excerpt: FIGS. 14A and 14B: In vivo mouse patient-derived xenograft experiment.

[4] = system: c-Myc; assay: c-Myc levels in multiple myeloma and lymphoma cell lines after Compound 345 (western blot); assay type: cell-based; settings: 24 hr post treatment
Excerpt: FIGS. 16A, 16B and 16C: Activity of Compound 345 in the c-Myc high multiple myeloma MM1S cell line. […] GAPDH was used as a loading control. […] Lenalidomide was used as a benchmark. 16C: Antiproliferative activity of Compound 345 (as indicated) following treatment with Compound 345 for 72 hr as assessed by Cell Titer Glo assay.
(§1) FIGS. 18A, 18B and 18C: Activity of Compound 345 in the c-Myc high WSU-DLCL2 lymphoma cell line. […] GAPDH was used as a loading control. 18B: Antiproliferative activity of Compound 345 (as indicated) following treatment with Compound 345 for 72 hr as assessed by Cell Titer Glo assay. […] Mice were dosed daily PO with vehicle or Compound 345 at 3, 10 mg/kg (as indicated). Tumor volumes were measured twice weekly. X-axis represents the number of days for treatment duration; y-axis represents mean tumor volume (in mm^3)±SEM. CHOP was used as a positive control for this model. Drug-free vehicle is represented by black circles; CHOP combination represented by light squares; Compound 345 3 mg/kg represented by triangles; Compound 345 10 mg/kg represented by dark squares.
as §1, with “19A, 19B,” for “18A, 18B”, “19C:” for “18C:”, “DOHH-2” for “WSU-DLCL2”, “19B:” for “18B:”, “model.” for “model. Drug-free vehicle is represented by black circles; CHOP combination represented by light squares; Compound 345 3 mg/kg represented by triangles; Compound 345 10 mg/kg represented by dark squares.”
Western blot analysis performed 24 hr post treatment initiation. GAPDH was used as a loading control. GSPT1 DC50 and Dmax as indicated.

GSPT1, sequence (P15170 whole entry): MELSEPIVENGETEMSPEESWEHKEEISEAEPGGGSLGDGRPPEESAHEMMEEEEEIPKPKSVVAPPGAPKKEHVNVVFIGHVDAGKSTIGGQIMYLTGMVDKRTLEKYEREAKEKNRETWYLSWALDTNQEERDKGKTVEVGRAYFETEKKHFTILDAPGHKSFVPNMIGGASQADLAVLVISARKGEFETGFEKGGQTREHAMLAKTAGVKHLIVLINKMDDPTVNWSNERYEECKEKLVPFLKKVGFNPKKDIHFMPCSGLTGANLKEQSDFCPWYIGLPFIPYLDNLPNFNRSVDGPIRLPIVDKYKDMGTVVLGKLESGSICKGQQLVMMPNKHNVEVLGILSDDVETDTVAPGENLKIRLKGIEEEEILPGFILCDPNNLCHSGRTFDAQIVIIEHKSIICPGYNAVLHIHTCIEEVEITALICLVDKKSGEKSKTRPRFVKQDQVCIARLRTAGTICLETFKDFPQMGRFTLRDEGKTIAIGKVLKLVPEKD
GSPT1, sequence (Q96SW2 whole entry): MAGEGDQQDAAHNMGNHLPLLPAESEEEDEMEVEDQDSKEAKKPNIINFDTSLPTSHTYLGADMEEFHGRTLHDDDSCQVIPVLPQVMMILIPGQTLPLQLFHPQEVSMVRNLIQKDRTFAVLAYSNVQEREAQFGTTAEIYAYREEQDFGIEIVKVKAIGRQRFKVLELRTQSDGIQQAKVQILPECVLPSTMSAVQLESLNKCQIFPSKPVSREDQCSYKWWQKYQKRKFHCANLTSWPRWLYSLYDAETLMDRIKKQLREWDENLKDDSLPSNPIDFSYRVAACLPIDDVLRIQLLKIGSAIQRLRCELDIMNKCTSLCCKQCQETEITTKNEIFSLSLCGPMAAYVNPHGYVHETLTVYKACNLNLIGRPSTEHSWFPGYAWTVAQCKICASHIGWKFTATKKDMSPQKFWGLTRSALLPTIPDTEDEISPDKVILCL
GSPT1, sequence (Q16531 whole entry partner): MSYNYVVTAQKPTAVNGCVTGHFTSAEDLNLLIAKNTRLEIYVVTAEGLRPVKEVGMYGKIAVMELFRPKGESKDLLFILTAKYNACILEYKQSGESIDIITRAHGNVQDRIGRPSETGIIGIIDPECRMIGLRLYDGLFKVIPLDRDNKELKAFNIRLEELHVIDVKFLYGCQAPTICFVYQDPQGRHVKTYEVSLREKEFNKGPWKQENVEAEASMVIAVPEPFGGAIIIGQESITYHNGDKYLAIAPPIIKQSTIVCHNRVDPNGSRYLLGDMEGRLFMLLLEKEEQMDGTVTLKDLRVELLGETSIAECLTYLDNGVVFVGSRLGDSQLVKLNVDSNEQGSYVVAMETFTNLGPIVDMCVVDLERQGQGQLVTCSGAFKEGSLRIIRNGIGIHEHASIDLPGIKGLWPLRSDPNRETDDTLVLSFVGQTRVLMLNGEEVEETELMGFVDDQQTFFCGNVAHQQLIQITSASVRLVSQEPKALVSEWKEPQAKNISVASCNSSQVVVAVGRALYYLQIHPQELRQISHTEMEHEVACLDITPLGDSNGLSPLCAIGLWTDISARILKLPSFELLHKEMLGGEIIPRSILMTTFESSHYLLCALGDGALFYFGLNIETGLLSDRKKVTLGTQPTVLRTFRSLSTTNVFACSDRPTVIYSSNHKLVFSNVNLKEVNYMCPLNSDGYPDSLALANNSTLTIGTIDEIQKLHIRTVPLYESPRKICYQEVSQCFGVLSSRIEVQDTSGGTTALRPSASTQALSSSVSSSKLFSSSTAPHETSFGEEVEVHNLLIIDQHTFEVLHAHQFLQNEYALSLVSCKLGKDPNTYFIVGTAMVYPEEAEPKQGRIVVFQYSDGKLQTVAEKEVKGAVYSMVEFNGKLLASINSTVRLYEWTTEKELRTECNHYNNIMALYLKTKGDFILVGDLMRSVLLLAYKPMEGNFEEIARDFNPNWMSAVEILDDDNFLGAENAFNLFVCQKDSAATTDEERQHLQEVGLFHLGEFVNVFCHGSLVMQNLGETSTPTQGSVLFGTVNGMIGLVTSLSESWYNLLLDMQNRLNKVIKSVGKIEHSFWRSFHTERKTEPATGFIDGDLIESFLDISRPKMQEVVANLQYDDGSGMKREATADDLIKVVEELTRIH

SMILES	tumor growth ([1]; 1 mg/kg once daily PO)	tumor size ([1]; 3 mg/kg once daily PO)	tumor size ([1]; 6 mg/kg PO, five days on and nine days off)	body weight ([1]; oral administration (PO))	tumor growth ([1]; oral administration (PO))	GSPT1 degradation in tumors [2]	survival ([3]; biomarker negative patient-derived xenografts)	survival ([3]; biomarker positive (high N-Myc or L-Myc mRNA expression) patient-derived xenografts)	c-Myc level ([4]; DOHH-2 lymphoma cell line)	c-Myc level ([4]; MM1S multiple myeloma cell line)	c-Myc level ([4]; WSU-DLCL2 lymphoma cell line)
Cc1ccc(NC(=O)OCc2ccc3c(c2)C(=O)N(C2CCC(=O)NC2=O)C3)cc1Cl (centres unmarked) [Compound 210]	tumor growth was suppressed for two weeks	tumor size decreased, became undetectable by day eight and remained so until the end of the study at day 21	tumor size decreased, became undetectable by day eight and remained so until the end of the study at day 21	no body weight loss observed	tumor growth inhibition	complete degradation of GSPT1	–	–	–	–	–
O=C1CCC(N2Cc3ccc(COC(=O)Nc4cc(OC(F)(F)F)ccc4F)cc3C2=O)C(=O)N1 (centres unmarked) [Compound 345, (2-(2,6-dioxopiperidin-3-yl)-3-oxoisoindolin-5-yl)methyl(2-fluoro-5-(trifluoromethoxy)phenyl)carbamate]	–	–	–	–	–	–	but not in the biomarker negative patient-derived xenografts	significantly prolonged survival	downregulation of c-Myc	downregulation of c-Myc	downregulation of c-Myc
